Experimental data published in patent US6544985B2, “Dihydro-benzo [b][1,4]diazepin-2-one derivatives” (Hoffman-La Roche Inc., priority 2001, dated 2003).

Work on CN(C)c1cc2c(cc1Cl)NC(=O)CC(c1cccc(-c3cc(CO)nn3C)c1)=N2 [Example 39, 8-Chloro-7-dimethylamino-4-[3-(5-hydroxymethyl-2-methyl-2H-pyrazol-3-yl)-phenyl]-1,3-dihydro-benzo[b][1,4]diazepin-2-one] yielded a melting point of 184 °C.
In the case of N#Cc1cc(C2=Nc3cc(N4CCCC4)c(C(F)(F)F)cc3NC(=O)C2)ccn1 [Example 40, 4-(4-Oxo-8-pyrrolidin-1-yl-7-trifluoromethyl-4,5-dihydro-3H-benzo[b][1,4]diazepin-2-yl)-pyridine-2-carbonitrile], the melting point is reported as 188 °C (dec.).
With O=C1CC(c2cccc(-n3nncc3CO)c2)=Nc2cc(N3CCCC3)c(C(F)(F)F)cc2N1 [Example 41, 4-[3-(5-Hydroxymethyl-[1,2,3]triazol-1-yl)-phenyl]-7-pyrrolidin-1-yl-8-trifluoromethyl-1,3-dihydro-benzo[b][1,4]diazepin-2-one] the melting point was 134 °C.
For CN(C)c1cc2c(cc1F)NC(=O)CC(c1cccc(-n3nncc3CO)c1)=N2 [Example 42, 7-Dimethylamino-8-fluoro-4-[3-(5-hydroxymethyl-[1,2,3]triazol-1-yl)-phenyl]-1,3-dihydro-benzo[b][1,4]diazepin-2-one], the melting point was 75 °C.
In the case of CN(C)Cc1cnnn1-c1cccc(C2=Nc3cc(N(C)C)c(F)cc3NC(=O)C2)c1 [Example 43, 7-Dimethylamino-4-[3-(5-dimethylaminomethyl-[1,2,3]triazol-1-yl)-phenyl]-8-fluoro-1,3-dihydro-benzo[b][1,4]diazepin-2-one], the melting point is reported as 181 °C.
For CN(C)c1cc2c(cc1F)NC(=O)CC(c1cccc(-c3cc(CO)no3)c1)=N2 [Example 44, 7-Dimethylamino-8-fluoro-4-[3-(3-hydroxymethyl-isoxazol-5-yl)-phenyl]-1,3-dihydro-benzo[b][1,4]diazepin-2-one], the melting point was 187 °C.
CN(C)c1cc2c(cc1Cl)NC(=O)CC(c1cccc(-n3nncc3CN3CCCC3)c1)=N2 [Example 45, 8-Chloro-7-dimethylamino-4-[3-(5-pyrrolidin-1-ylmethyl-[1,2,3]triazol-1-yl)-phenyl]-1,3-dihydro-benzo[b][1,4]diazepin-2-one] gave a melting point of 180 to 182 °C.
Compound CN(C)c1cc2c(cc1Cl)NC(=O)CC(c1cccc(-n3nncc3CN3CCC3)c1)=N2 [Example 48, 4-[3-(5-Azetidin-1-ylmethyl-[1,2,3]triazol-1-yl)-phenyl]-8-chloro-7-dimethylamino-1,3-dihydro-benzo[b][1,4]diazepin-2-one] has a melting point of 153 °C.
For CN(C)c1cc2c(cc1Cl)NC(=O)CC(c1cccc(-c3cc(CO)on3)c1)=N2 [Example 49, 8-Chloro-7-dimethylamino-4-[3-(5-hydroxymethyl-isoxazol-3-yl)-phenyl]-1,3-dihydro-benzo[b][1,4]diazepin-2-one], the melting point was 211 °C (dec.).
In the case of O=C1CC(c2cccc(-n3nncc3CO)c2)=Nc2cc(N3CCCCC3)c(Cl)cc2N1 [Example 50, 8-Chloro-4-[3-(5-hydroxymethyl-[1,2,3]triazol-1-yl)-phenyl]-7-piperidin-1-yl-1,3-dihydro-benzo[b][1,4]diazepin-2-one], the melting point is reported as 246 °C (dec.).
With CN(C)c1cc2c(cc1C(F)(F)F)NC(=O)CC(c1cccc(-c3cc(CO)on3)c1)=N2 [Example 51, 7-Dimethylamino-4-[3-(5-hydroxymethyl-isoxazol-3-yl)-phenyl]-8-trifluoromethyl-1,3-dihydro-benzo[b][1,4]diazepin-2-one] the melting point was 211 °C (dec.).
CN(C)c1cc2c(cc1C(F)(F)F)NC(=O)CC(c1cccc(-c3cc(CN4CCCC4)no3)c1)=N2 [Example 53, 7-Dimethylamino-4-[3-(3-pyrrolidin-1-ylmethyl-isoxazol-5-yl)-phenyl]-8-trifluoromethyl-1,3-dihydro-benzo[b][1,4]diazepin-2-one] gave a melting point of 160 °C.
With CN(C)Cc1cc(-c2cccc(C3=Nc4cc(N(C)C)c(C(F)(F)F)cc4NC(=O)C3)c2)on1 [Example 55, 7-Dimethylamino-4-[3-(3-dimethylaminomethyl-isoxazol-5-yl)-phenyl]-8-trifluoromethyl-1,3-dihydro-benzo[b][1,4]diazepin-2-one] the melting point was 160 °C.
Work on N#Cc1cc(C2=Nc3cc(N4CCCC4)c(F)cc3NC(=O)C2)ccn1 [Example 56, 4-(7-Fluoro-4-oxo-8-pyrrolidin-1-yl-4,5-dihydro-3H-benzo[b][1,4]diazepin-2-yl)-pyridine-2-carbonitrile] yielded a melting point of 278 to 279 °C.
In the case of Cc1cc(-c2cccc(C3=Nc4cc(N5CCCC5)c(F)cc4NC(=O)C3)c2)on1 [Example 57, 8-Fluoro-4-[3-(3-methyl-isoxazol-5-yl)-phenyl]-7-pyrrolidin-1-yl-1,3-dihydro-benzo[b][1,4]diazepin-2-one], the melting point is reported as 236 °C.
Work on O=C1CC(c2cccc(-n3nncc3CO)c2)=Nc2cc(N3CCCC3)c(F)cc2N1 [Example 58, 8-Fluoro-4-[3-(5-hydroxymethyl-[1,2,3]triazol-1-yl)-phenyl]-7-pyrrolidin-1-yl-1,3-dihydro-benzo[b][1,4]diazepin-2-one] yielded a melting point of 184 to 185 °C.
With N#Cc1cc(C2=Nc3cc(N4CCC4)c(Cl)cc3NC(=O)C2)ccn1 [Example 59, 4-(8-Azetidin-1-yl-7-chloro-4-oxo-4,5-dihydro-3H-benzo[b][1,4]diazepin-2-yl)-pyridine-2-carbonitrile] the melting point was 276 °C.
O=C1CC(c2cccc(-c3cc(CO)on3)c2)=Nc2cc(N3CCCC3)c(C(F)(F)F)cc2N1 [Example 60, 4-[3-(5-Hydroxymethyl-isoxazol-3-yl)-phenyl]-7-pyrrolidin-1-yl-8-trifluoromethyl-1,3-dihydro-benzo[b][1,4]diazepin-2-one] gave a melting point of 206 to 208 °C.
With N#Cc1cc(C2=Nc3cc(N4CCC4)c(C(F)(F)F)cc3NC(=O)C2)ccn1 [Example 61, 4-(8-Azetidin-1-yl-4-oxo-7-trifluoromethyl-4,5-dihydro-3H-benzo[b][1,4]diazepin-2-yl)-pyridine-2-carbonitrile] the melting point was 241 °C.
For Cc1cc(-c2cccc(C3=Nc4cc(N5CCC5)c(C(F)(F)F)cc4NC(=O)C3)c2)on1 [Example 62, 7-Azetidin-1-yl-4-[3-(3-methyl-isoxazol-5-yl)-phenyl]-8-trifluoromethyl-1,3-dihydro-benzo[b][1,4]diazepin-2-one], the melting point was 239 °C (dec.).
In the case of O=C1CC(c2cccc(-n3nncc3CO)c2)=Nc2cc(N3CCC3)c(C(F)(F)F)cc2N1 [Example 63, 7-Azetidin-1-yl-4-[3-(5-hydroxymethyl-[1,2,3]triazol-1-yl)-phenyl]-8-trifluoromethyl-1,3-dihydro-benzo[b][1,4]diazepin-2-one], the melting point is reported as 202 °C (dec.).
In the case of CN(C)c1cc2c(cc1C(F)(F)F)NC(=O)CC(c1cccc(-n3cccn3)c1)=N2 [Example 64, 7-Dimethylamino-4-(3-pyrazol-1-yl-phenyl)-8-trifluoromethyl-1,3-dihydro-benzo[b][1,4]diazepin-2-one], the melting point is reported as 176 °C.
Compound CN(C)c1cc2c(cc1C(F)(F)F)NC(=O)CC(c1cccc(-n3cnnc3)c1)=N2 [Example 65, 7-Dimethylamino-4-(3-[1,2,4]triazol-4-yl-phenyl)-8-trifluoromethyl-1,3-dihydro-benzo[b][1,4]diazepin-2-one] has a melting point of 247 to 250 °C.
CN(C)c1cc2c(cc1C(F)(F)F)NC(=O)CC(c1cccc(-n3ccnc3)c1)=N2 [Example 66, 7-Dimethylamino-4-(3-imidazol-1-yl-phenyl)-8-trifluoromethyl-1,3-dihydro-benzo[b][1,4]diazepin-2-one] gave a melting point of 203 to 205 °C.
CN(C)c1cc2c(cc1Cl)NC(=O)CC(c1cccc(-n3cc(CO)cn3)c1)=N2 [Example 67, 8-Chloro-7-dimethylamino-4-[3-(4-hydroxymethyl-pyrazol-1-yl)-phenyl]-1,3-dihydro-benzo[b][1,4]diazepin-2-one] showed a melting point of 211 °C.
With CN(C)c1cc2c(cc1C(F)(F)F)NC(=O)CC(c1cccc(-n3cc(CO)cn3)c1)=N2 [Example 68, 7-Dimethylamino-4-[3-(4-hydroxymethyl-pyrazol-1-yl)-phenyl]-8-trifluoromethyl-1,3-dihydro-benzo[b][1,4]diazepin-2-one] the melting point was 175 °C.
Cc1noc(-c2cccc(C3=Nc4cc(N(C)C)c(C(F)(F)F)cc4NC(=O)C3)c2)c1CO [Example 69, 7-Dimethylamino-4-[3-(4-hydroxymethyl-3-methyl-isoxazol-5-yl)-phenyl]-8-trifluoromethyl-1,3-dihydro-benzo[b][1,4]diazepin-2-one] gave a melting point of 207 to 208 °C.
Work on CN(C)c1cc2c(cc1C(F)(F)F)NC(=O)CC(c1cccc(-c3nocc3CO)c1)=N2 [Example 70, 7-Dimethylamino-4-[3-(4-hydroxymethyl-isoxazol-3-yl)-phenyl]-8-trifluoromethyl-1,3-dihydro-benzo[b][1,4]diazepin-2-one] yielded a melting point of 217 to 219 °C.
With CN(C)c1cc2c(cc1C(F)(F)F)NC(=O)CC(c1cccc(-c3c(CO)cnn3C)c1)=N2 [Example 72, 7-Dimethylamino-4-[3-(4-hydroxymethyl-2-methyl-2H-pyrazol-3-yl)-phenyl]-8-trifluoromethyl-1,3-dihydro-benzo[b][1,4]diazepin-2-one] the melting point was 243 to 244 °C.
With CN(C)c1cc2c(cc1Cl)NC(=O)CC(c1cccc(-n3cncn3)c1)=N2 [Example 73, 8-Chloro-7-dimethylamino-4-(3-[1,2,4]triazol-1-yl-phenyl)-1,3-dihydro-benzo[b][1,4]diazepin-2-one] the melting point was 239 to 241 °C.
For CN(C)c1cc2c(cc1C(F)(F)F)NC(=O)CC(c1cccc(-n3cncn3)c1)=N2 [Example 74, 7-Dimethylamino-4-(3-[1,2,4]triazol-1-yl-phenyl)-8-trifluoromethyl-1,3-dihydro-benzo[b][1,4]diazepin-2-one], the melting point was 228 to 230 °C.
In the case of CN(C)c1cc2c(cc1C(F)(F)F)NC(=O)CC(c1cccc(C#N)c1)=N2 [Example 75, 3-(8-Dimethylamino-4-oxo-7-trifluoromethyl-4,5-dihydro-3H-benzo[b][1,4]diazepin-2-yl)-benzonitrile], the melting point is reported as 224 to 227 °C.
